{"source": "patent US20240041851A1", "about": "(priority 2020, published 2024)", "key": {"SARS-CoV-2 [1]": {"system": "SARS-CoV-2", "test": "Simultaneous Stellaris FISH and immunofluorescence: viral +strand gRNA and nucleocapsid protein (Np)", "assay_type": "cell-based", "conditions": "for restoration of viral gRNA levels in MTX-treated cells: 10011M thymidine or 1 mM formate added to 1 μM MTX; for restoration of viral gRNA levels in MTX-treated cells / rescue of translation of viral Np in MTX-treated cells: 48 hours; for rescue of translation of viral Np in MTX-treated cells: thymidine or 1 mM formate added to 1 μM MTX"}, "[2]": {"system": "SARS-CoV-2 infected Vero E6 TMPRSS2+ cells", "test": "Live cell number (cytopathic effect) quantification assay, Viral Tox-Glo", "assay_type": "cell-based, African Green Monkey", "conditions": "for rescue of CPE in MTX-treated cells: thymidine or 1 mM formate added to 1 μM MTX, 48 hours"}, "SARS-CoV-2 [3]": {"system": "SARS-CoV-2", "assay_type": "cell-based", "conditions": "for rescue of virion production in MTX-treated cells: thymidine or 1 mM formate added to 1 μM MTX, 48 hours"}, "RNA flavivirus Zika": {"system": "RNA flavivirus Zika", "conditions": "cited from earlier work"}}, "note": "Like-named read-outs stand apart in the source and are kept apart here."}
{"smiles": "CCCCS(=N)(=O)CCC(N)C(=O)O", "note": "[BSO, L-buthionine-sulfoximine]", "values": [{"measurement": "Np levels", "setting": "SARS-CoV-2 [1]", "result": "did not have any apparent effect"}, {"measurement": "viral gRNA levels", "setting": "SARS-CoV-2 [1]", "result": "did not have any apparent effect"}]}
{"smiles": "O=C(COc1ccc(Cl)cc1)NC1CCC(NC(=O)COc2ccc(Cl)cc2)CC1", "note": "(centres unmarked) [ISRIB]", "values": [{"measurement": "Np expression", "setting": "SARS-CoV-2 [1]", "result": "did not appreciably diminish"}, {"measurement": "viral gRNA expression", "setting": "SARS-CoV-2 [1]", "result": "did not appreciably diminish"}, {"measurement": "number of live cells", "setting": "[2]", "result": "increased the number of live cells"}]}
{"smiles": "Cc1n[nH]c2c1C(c1cc(CO)cc(-c3ccccc3)c1)(C(C)C)C(C#N)=C(N)O2", "note": "(centres unmarked) [SHIN1]", "values": [{"measurement": "reduction of infectious virus titer", "setting": "SARS-CoV-2 [3]", "result": "~1", "unit": "log"}, {"measurement": "+strand gRNA levels", "setting": "SARS-CoV-2 [1]", "result": "diminished"}, {"measurement": "nucleoprotein levels", "setting": "SARS-CoV-2 [1]", "result": "diminished"}, {"measurement": "viral CPE", "setting": "[2]", "result": "induced resistance to viral CPE"}]}
{"smiles": "CN(Cc1cnc2nc(N)nc(N)c2n1)c1ccc(C(=O)N[C@@H](CCC(=O)O)C(=O)O)cc1", "note": "[methotrexate]", "values": [{"measurement": "diminished secretion of infectious virion", "setting": "SARS-CoV-2 [3]", "result": "~2", "unit": "log"}, {"measurement": "Np levels", "setting": "SARS-CoV-2 [1]", "result": "reduced"}, {"measurement": "viral gRNA levels", "setting": "SARS-CoV-2 [1]", "result": "reduced"}, {"measurement": "virus-induced CPE", "setting": "[2]", "result": "significantly blocked virus-induced CPE"}, {"measurement": "replication of the RNA flavivirus Zika", "setting": "RNA flavivirus Zika", "result": "impair replication"}]}
{"smiles": "C/C=C(\\C)[C@H](O)[C@H](C)/C=C(C)/C=C/C/C(C)=C/Cc1nc(OC)c(OC)c(O)c1C", "note": "[Piericidin A]", "values": [{"measurement": "secreted virus levels", "setting": "SARS-CoV-2 [3]", "result": "did not have a major impact"}, {"measurement": "secreted virus levels", "setting": "SARS-CoV-2 [3]; listed as PierA", "result": "did not reduce viral replication"}, {"measurement": "Np levels", "setting": "SARS-CoV-2 [1]", "result": "did not have a major impact"}, {"measurement": "viral gRNA levels", "setting": "SARS-CoV-2 [1]", "result": "did not have a major impact"}, {"measurement": "viral CPE", "setting": "[2]", "result": "reduced viral CPE"}]}
{"smiles": "Cc1cn([C@H]2C[C@H](O)[C@@H](CO)O2)c(=O)[nH]c1=O", "note": "[thymidine]", "values": [{"measurement": "rescue of virion production in MTX-treated cells", "setting": "SARS-CoV-2 [3]", "result": "unable to rescue"}, {"measurement": "restoration of viral gRNA levels in MTX-treated cells", "setting": "SARS-CoV-2 [1]", "result": "could only partially restore"}, {"measurement": "rescue of translation of viral Np in MTX-treated cells", "setting": "SARS-CoV-2 [1]", "result": "unable to rescue"}, {"measurement": "rescue of CPE in MTX-treated cells", "setting": "[2]", "result": "unable to rescue"}]}
{"smiles": "O=c1[nH]cnc2nc[nH]c12", "note": "[hypoxanthine]", "values": [{"measurement": "reversal of all effects of MTX (CPE, gRNA, Np, infectious virion)", "setting": "SARS-CoV-2 [3]", "result": "could be reversed"}]}
{"smiles": "O=C[O-].[Na+]", "note": "[formate, sodium formate]", "values": [{"measurement": "reversal of SHIN1 effects (virus titer, gRNA, nucleoprotein, CPE)", "setting": "SARS-CoV-2 [3]; 1 mM formate added to 10 μM SHIN1, 48 hours", "result": "fully reversed"}, {"measurement": "rescue of virion production in MTX-treated cells", "setting": "SARS-CoV-2 [3]", "result": "unable to rescue"}, {"measurement": "restoration of viral gRNA levels in MTX-treated cells", "setting": "SARS-CoV-2 [1]", "result": "could only partially restore"}, {"measurement": "rescue of translation of viral Np in MTX-treated cells", "setting": "SARS-CoV-2 [1]", "result": "unable to rescue"}, {"measurement": "rescue of CPE in MTX-treated cells", "setting": "[2]", "result": "unable to rescue"}]}
